Reference: PubChem BioAssay (NCI)
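Following 48 hours of exposure in 96-well plates, responses at five concentrations were used to interpolate endpoints linearly. At the TGI there is no net growth.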

Columns and labels:
Assay in all cases: growth of human tumour cells (NCI), 48 h
[1] = test system: OVCAR-3 ovarian
[2] = test system: MDA-MB-231 breast
[3] = test system: PC-3 prostate
[4] = test system: UACC-257 melanoma
[5] = test system: OVCAR-8 ovarian
[6] = test system: SW-620 colon
[7] = test system: RXF 393 renal
[8] = test system: HCT-116 colon
[9] = test system: SF-268 CNS
[10] = test system: K-562 leukemia
[11] = test system: A549 NSCLC
[12] = test system: HT29 colon
[13] = test system: NCI-H226 lung
[14] = test system: MDA-MB-435
[15] = test system: M14 melanoma
[16] = test system: NCI-H460 lung
[17] = test system: ACHN renal
[18] = test system: LOX IMVI melanoma
[19] = test system: U251 CNS
[20] = test system: COLO 205 colon
[21] = test system: HOP-62 NSCLC
[22] = test system: SK-MEL-2 melanoma
[23] = test system: SNB-19 CNS
[24] = test system: HL-60(TB) leukemia
[25] = test system: IGROV1 ovarian
[26] = test system: HCT-15 colon
[27] = test system: SK-OV-3 ovarian
[28] = test system: SN12C renal
[29] = test system: UACC-62 melanoma
[30] = test system: NCI/ADR-RES ovarian
[31] = test system: OVCAR-5 ovarian
[32] = test system: NCI-H522 lung
[33] = test system: SF-295 CNS
[34] = test system: SR leukemia
[35] = test system: T-47D breast
[36] = test system: KM12 colon
[37] = test system: HS 578T breast
[38] = test system: DU-145 prostate
[39] = test system: CCRF-CEM leukemia
[40] = test system: MDA-N
[41] = test system: SK-MEL-5 melanoma
[42] = test system: NCI-H23 lung
[43] = test system: 786-0 renal
[44] = test system: HOP-92 NSCLC
[45] = test system: SF-539 CNS
[46] = test system: CAKI-1 renal
[47] = test system: UO-31 renal
[48] = test system: MCF7 breast
[49] = test system: RPMI-8226 leukemia
[50] = test system: MOLT-4 leukemia
[51] = test system: SK-MEL-28 melanoma
[52] = test system: SNB-75 CNS
[53] = test system: EKVX NSCLC
[54] = test system: TK-10 renal
[55] = test system: OVCAR-4 ovarian
[56] = test system: A498 renal

COc1ccccc1-c1cc(=O)c2ccccc2n1C1CC1
TGI [1]: 11 µM
TGI [2]: 16 µM
TGI [3]: 27.8 µM
TGI [4]: 26.6 µM
TGI [5]: 18.1 µM
TGI [6]: 15.8 µM
TGI [7]: 6.62 µM
TGI [8]: 10.4 µM
TGI [9]: 20.5 µM
TGI [10]: > 100 µM
TGI [11]: 12.8 µM
TGI [12]: 4.37 µM
TGI [13]: 15 µM
TGI [14]: 12.5 µM
TGI [15]: 16.2 µM
TGI [16]: 15.7 µM
TGI [17]: 5.78 µM
TGI [18]: 15.5 µM
TGI [19]: 14.2 µM
TGI [20]: 11.1 µM
TGI [21]: 15.4 µM
TGI [22]: 8.07 µM
TGI [23]: 34.3 µM
TGI [24]: 35.5 µM
TGI [25]: 44 µM
TGI [26]: 12.2 µM
TGI [27]: 41.1 µM
TGI [28]: 19.5 µM
TGI [29]: 11.5 µM
TGI [30]: 31.3 µM
TGI [31]: 14.2 µM
TGI [32]: 5.63 µM
TGI [33]: 7.99 µM
TGI [34]: 18.7 µM
TGI [35]: 9.73 µM
TGI [36]: 12 µM
TGI [37]: 25.7 µM
TGI [38]: 14.4 µM
TGI [39]: 56.1 µM
TGI [40]: 18 µM
TGI [41]: 14.8 µM
TGI [42]: 22.8 µM
TGI [43]: 15.3 µM
TGI [44]: 19.8 µM
TGI [45]: 16.5 µM
TGI [46]: 14.1 µM
TGI [47]: 19 µM
TGI [48]: 18.7 µM
TGI [49]: 5.64 µM
TGI [50]: 45.9 µM

CC1(C)CC(=O)c2c(nc3c(ccc4ccccc43)c2-c2ccc(NC(=O)CCCC(=O)Nc3ccc(-c4c5c(nc6c4ccc4ccccc46)CC(C)(C)CC5=O)cc3)cc2)C1
TGI [1]: > 100 µM
TGI [2]: > 100 µM
TGI [3]: > 100 µM
TGI [4]: > 100 µM
TGI [51]: > 100 µM
TGI [5]: > 100 µM
TGI [6]: > 100 µM
TGI [7]: > 100 µM
TGI [8]: > 100 µM
TGI [9]: > 100 µM
TGI [10]: > 100 µM
TGI [11]: > 100 µM
TGI [12]: > 100 µM
TGI [52]: > 100 µM
TGI [13]: > 100 µM
TGI [14]: > 100 µM
TGI [15]: > 100 µM
TGI [16]: > 100 µM
TGI [17]: > 100 µM
TGI [18]: > 100 µM
TGI [19]: > 100 µM
TGI [53]: > 100 µM
TGI [20]: > 100 µM
TGI [21]: > 100 µM
TGI [22]: > 100 µM
TGI [23]: > 100 µM
TGI [24]: > 100 µM
TGI [25]: > 100 µM
TGI [26]: > 100 µM
TGI [27]: > 100 µM
TGI [28]: > 100 µM
TGI [30]: > 100 µM
TGI [31]: > 100 µM
TGI [32]: > 100 µM
TGI [33]: > 100 µM
TGI [34]: > 100 µM
TGI [35]: > 100 µM
TGI [36]: > 100 µM
TGI [37]: > 100 µM
TGI [38]: > 100 µM
TGI [39]: > 100 µM
TGI [40]: > 100 µM
TGI [41]: > 100 µM
TGI [43]: > 100 µM
TGI [45]: > 100 µM
TGI [46]: > 100 µM
TGI [47]: > 100 µM
TGI [48]: > 100 µM
TGI [54]: > 100 µM
TGI [49]: > 100 µM
TGI [50]: > 100 µM

C=CCCC1CCCCC/C1=N\N(C)C (stereo unspecified)
TGI [1]: > 100 µM
TGI [2]: > 100 µM
TGI [3]: > 100 µM
TGI [4]: > 100 µM
TGI [51]: > 100 µM
TGI [5]: > 100 µM
TGI [6]: > 100 µM
TGI [55]: > 100 µM
TGI [8]: > 100 µM
TGI [9]: > 100 µM
TGI [10]: > 100 µM
TGI [11]: > 100 µM
TGI [12]: > 100 µM
TGI [52]: > 100 µM
TGI [13]: > 100 µM
TGI [14]: > 100 µM
TGI [15]: > 100 µM
TGI [16]: > 100 µM
TGI [17]: > 100 µM
TGI [18]: > 100 µM
TGI [19]: > 100 µM
TGI [53]: > 100 µM
TGI [20]: > 100 µM
TGI [21]: > 100 µM
TGI [22]: > 100 µM
TGI [23]: > 100 µM
TGI [24]: > 100 µM
TGI [25]: > 100 µM
TGI [26]: > 100 µM
TGI [27]: > 100 µM
TGI [28]: > 100 µM
TGI [29]: > 100 µM
TGI [30]: > 100 µM
TGI [31]: > 100 µM
TGI [32]: > 100 µM
TGI [33]: > 100 µM
TGI [34]: > 100 µM
TGI [35]: > 100 µM
TGI [36]: > 100 µM
TGI [37]: > 100 µM
TGI [38]: > 100 µM
TGI [39]: > 100 µM
TGI [40]: > 100 µM
TGI [41]: > 100 µM
TGI [42]: > 100 µM
TGI [43]: > 100 µM
TGI [44]: > 100 µM
TGI [45]: > 100 µM
TGI [46]: > 100 µM
TGI [56]: > 100 µM
TGI [47]: > 100 µM
TGI [48]: > 100 µM
TGI [54]: > 100 µM
TGI [49]: > 100 µM
TGI [50]: > 100 µM
